Assays:
[1] = Inhibition of almond beta-glucosidase using p-Nitrophenyl beta-D-glucopyranoside as substrate; parameters: species or system Prunus dulcis
[2] = Inhibition of Bakers yeast alpha-glucosidase using p-Nitrophenyl alpha-D-glucopyranoside as substrate; parameters: species or system Saccharomyces cerevisiae
[3] = Glutathione peroxidase like activity assessed as hydrogen peroxide reduction by measuring reaction rate at 0.1 mM measured for 180 sec in presence of PhSH relative to control
[4] = Glutathione peroxidase like activity assessed as hydrogen peroxide reduction by measuring reaction rate at 0.1 mM measured for 180 sec in presence of PhSH relative to (PhSe)2
[5] = Glutathione peroxidase like activity assessed as hydrogen peroxide reduction by measuring Kcat to Kuncat ratio measured for 180 sec in prescence of varying levels of Phsh by Hanes-Woof plot method
[6] = Glutathione peroxidase like activity assessed as hydrogen peroxide reduction by measuring compound Km measured for 180 sec in prescence of varying levels of Phsh by Hanes-Woof plot method
Acetylcholinesterase [7] = biological target: T1, Acetylcholinesterase (Electrophorus electricus, UniProt O42275); experiment: Mixed-type inhibition of electric eel acetylcholinesterase assessed as enzyme-inhibitor complex by Lineweaver-Burk plot method
T1 sequence (O42275 whole entry): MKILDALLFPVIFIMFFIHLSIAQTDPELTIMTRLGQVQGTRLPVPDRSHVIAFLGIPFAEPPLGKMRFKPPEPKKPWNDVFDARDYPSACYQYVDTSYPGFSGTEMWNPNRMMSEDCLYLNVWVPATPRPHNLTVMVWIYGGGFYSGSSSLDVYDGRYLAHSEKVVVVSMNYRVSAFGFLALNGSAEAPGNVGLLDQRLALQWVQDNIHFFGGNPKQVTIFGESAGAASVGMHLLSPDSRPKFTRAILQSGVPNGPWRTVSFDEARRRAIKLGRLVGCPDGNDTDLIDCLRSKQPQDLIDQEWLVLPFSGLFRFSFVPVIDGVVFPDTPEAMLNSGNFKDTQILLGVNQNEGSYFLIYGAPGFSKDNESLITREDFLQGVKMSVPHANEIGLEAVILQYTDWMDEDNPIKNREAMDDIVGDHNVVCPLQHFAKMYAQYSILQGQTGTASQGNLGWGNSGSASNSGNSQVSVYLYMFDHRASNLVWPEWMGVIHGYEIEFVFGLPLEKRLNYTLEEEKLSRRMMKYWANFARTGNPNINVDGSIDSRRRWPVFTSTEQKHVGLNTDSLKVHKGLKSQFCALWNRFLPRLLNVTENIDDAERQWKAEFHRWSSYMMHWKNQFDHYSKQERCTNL

Alpha-mannosidase [8] = biological target: T2, Alpha-mannosidase (Canavalia ensiformis, UniProt C0HJB3); experiment: Mixed-type inhibition of jack bean alpha-mannosidase assessed as enzyme-inhibitor complex using o-orp-nitrophenyl-glycopyranoside as substrate by Lineweaver-Burk plot method
T2 sequence (C0HJB3 whole entry): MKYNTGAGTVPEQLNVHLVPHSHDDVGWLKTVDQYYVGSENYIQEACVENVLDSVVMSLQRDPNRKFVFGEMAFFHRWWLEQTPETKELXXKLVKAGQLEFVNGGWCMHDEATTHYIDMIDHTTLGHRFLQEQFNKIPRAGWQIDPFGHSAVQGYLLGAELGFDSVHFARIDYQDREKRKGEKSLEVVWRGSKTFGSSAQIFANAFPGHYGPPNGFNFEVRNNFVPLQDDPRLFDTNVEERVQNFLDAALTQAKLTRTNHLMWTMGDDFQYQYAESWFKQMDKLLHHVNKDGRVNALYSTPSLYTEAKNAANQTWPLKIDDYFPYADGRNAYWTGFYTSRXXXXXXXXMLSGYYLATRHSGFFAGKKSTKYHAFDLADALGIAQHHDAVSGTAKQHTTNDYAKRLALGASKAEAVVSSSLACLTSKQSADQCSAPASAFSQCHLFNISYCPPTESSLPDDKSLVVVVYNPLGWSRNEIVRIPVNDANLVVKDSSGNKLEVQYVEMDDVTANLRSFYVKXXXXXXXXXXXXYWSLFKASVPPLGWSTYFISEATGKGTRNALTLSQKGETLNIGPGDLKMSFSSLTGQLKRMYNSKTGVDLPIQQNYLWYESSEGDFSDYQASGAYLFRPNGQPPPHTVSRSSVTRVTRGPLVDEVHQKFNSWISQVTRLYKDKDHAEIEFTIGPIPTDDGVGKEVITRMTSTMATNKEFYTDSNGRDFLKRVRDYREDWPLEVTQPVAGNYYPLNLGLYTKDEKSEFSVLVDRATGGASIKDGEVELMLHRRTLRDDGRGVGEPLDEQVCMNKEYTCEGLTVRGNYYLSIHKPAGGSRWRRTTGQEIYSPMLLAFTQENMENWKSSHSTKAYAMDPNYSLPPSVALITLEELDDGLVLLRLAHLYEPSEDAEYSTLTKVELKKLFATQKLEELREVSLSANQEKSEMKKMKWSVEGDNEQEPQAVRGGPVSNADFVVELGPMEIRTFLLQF

[9] = Antiproliferative activity against human A549 cells after 48 hrs by sulforhodamine B assay; type: functional; conditions: A549, 48 h
[10] = Glutathione peroxidase like activity assessed as hydrogen peroxide reduction by measuring compound Kcat measured for 180 sec in prescence of varying levels of Phsh by Hanes-Woof plot method
Aspergillus oryzae = experiment: Inhibition of Aspergillus oryzae beta-galactosidase at 0.5 mM using o-orp-nitrophenyl-glycopyranoside as substrate measured for 120 sec relative to control
Prunus dulcis = experiment: Inhibition of almond beta-glucosidase at 500 uM using o-orp-nitrophenyl-glycopyranoside as substrate measured for 120 sec relative to control
[11] = biological target: T3, Alpha-mannosidase (Canavalia ensiformis) (UniProt C0HJB3); experiment: Inhibition of jack bean alpha-mannosidase at 0.5 mM using o-orp-nitrophenyl-glycopyranoside as substrate measured every 30 sec for 3 mins relative to control
T3 sequence (whole entry): T2 sequence (C0HJB3 whole entry)

Helix pomatia = experiment: Inhibition of Helix-pomatia beta-mannosidase at 0.5 mM using o-orp-nitrophenyl-glycopyranoside as substrate measured every 30 sec for 3 mins relative to control
[12] = Antiproliferative activity against human SW1573 cells after 48 hrs by sulforhodamine B assay; type: functional; conditions: SW1573, 48 h
[13] = Antiproliferative activity against human HBL100 cells after 48 hrs by sulforhodamine B assay; type: functional; conditions: HBL-100, 48 h
[14] = Antiproliferative activity against human HeLa cells after 48 hrs by sulforhodamine B assay; type: functional
[15] = biological target: Alpha-galactosidase (Coffea arabica) (UniProt Q42656); experiment: Inhibition of green coffee beans alpha-galactosidase at 0.5 mM using o-orp-nitrophenyl-glycopyranoside as substrate measured for 120 sec relative to control
Sequence of Alpha-galactosidase (Coffea arabica) (Q42656 16-378 limits assumed): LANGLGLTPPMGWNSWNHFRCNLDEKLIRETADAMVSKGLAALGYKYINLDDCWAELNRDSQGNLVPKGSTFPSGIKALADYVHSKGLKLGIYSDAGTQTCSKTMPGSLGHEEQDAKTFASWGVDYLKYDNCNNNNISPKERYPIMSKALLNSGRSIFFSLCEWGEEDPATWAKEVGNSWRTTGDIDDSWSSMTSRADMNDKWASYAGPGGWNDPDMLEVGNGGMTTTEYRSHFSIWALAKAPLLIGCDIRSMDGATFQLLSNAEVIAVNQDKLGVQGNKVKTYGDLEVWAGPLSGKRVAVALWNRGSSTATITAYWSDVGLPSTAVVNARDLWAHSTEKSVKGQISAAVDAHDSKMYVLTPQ

Alpha-mannosidase [16] = biological target: T2, Alpha-mannosidase; experiment: Mixed-type inhibition of jack bean alpha-mannosidase assessed as enzyme-substrate-inhibitor complex using o-orp-nitrophenyl-glycopyranoside as substrate by Lineweaver-Burk plot method
[17] = Glutathione peroxidase like activity assessed as hydrogen peroxide reduction by measuring compound Vmax measured for 180 sec in prescence of varying levels of Phsh by Hanes-Woof plot method
Escherichia coli = experiment: Inhibition of Escherichia coli beta-galactosidase at 0.5 mM using o-orp-nitrophenyl-glycopyranoside as substrate measured for 120 sec relative to control
Saccharomyces cerevisiae = experiment: Inhibition of Bakers yeast alpha-glucosidase at 500 uM using o-orp-nitrophenyl-glycopyranoside as substrate measured for 120 sec relative to control
[18] = Antiproliferative activity against human T47D cells after 48 hrs by sulforhodamine B assay; type: functional
[19] = Competitive inhibition of almond beta-glucosidase using o-orp-nitrophenyl-glycopyranoside as substrate by Lineweaver-Burk plot method; parameters: species or system Prunus dulcis
[20] = biological target: Acetylcholinesterase (Electrophorus electricus) (UniProt O42275); experiment: Inhibition of electric eel acetylcholinesterase at 500 uM assessed as thep-nitrophenolate formation measured for 120 sec relative to control
Sequence of Acetylcholinesterase (Electrophorus electricus) (O42275 24-633 limits assumed): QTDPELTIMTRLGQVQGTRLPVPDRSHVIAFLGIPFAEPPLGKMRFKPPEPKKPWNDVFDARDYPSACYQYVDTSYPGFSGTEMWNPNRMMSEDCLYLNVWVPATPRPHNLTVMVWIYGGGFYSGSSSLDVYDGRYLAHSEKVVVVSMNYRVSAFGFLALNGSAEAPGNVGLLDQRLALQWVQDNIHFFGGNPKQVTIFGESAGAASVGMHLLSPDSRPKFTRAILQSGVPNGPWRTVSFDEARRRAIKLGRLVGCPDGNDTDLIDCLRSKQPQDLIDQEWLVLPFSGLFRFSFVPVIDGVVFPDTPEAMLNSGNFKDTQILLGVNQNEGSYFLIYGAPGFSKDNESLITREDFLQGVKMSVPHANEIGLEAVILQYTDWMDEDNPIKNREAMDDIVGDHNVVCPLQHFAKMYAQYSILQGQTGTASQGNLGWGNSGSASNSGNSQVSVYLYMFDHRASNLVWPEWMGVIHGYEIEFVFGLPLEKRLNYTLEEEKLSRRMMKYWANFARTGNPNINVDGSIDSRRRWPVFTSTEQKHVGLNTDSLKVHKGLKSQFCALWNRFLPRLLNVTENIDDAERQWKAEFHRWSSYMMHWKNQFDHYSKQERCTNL

[21] = Selectivity ratio of Ki for Bakers yeast alpha-glucosidase to Ki for almond beta-glucosidase
[22] = Antiproliferative activity against human WiDr cells after 48 hrs by sulforhodamine B assay; type: functional
[23] = Inhibition of Bakers yeast alpha-glucosidase using o-orp-nitrophenyl-glycopyranoside as substrate by Lineweaver-Burk plot method; parameters: species or system Saccharomyces cerevisiae
Acetylcholinesterase [24] = biological target: T1, Acetylcholinesterase; experiment: Mixed-type inhibition of electric eel acetylcholinesterase assessed as enzyme-substrate-inhibitor complex by Lineweaver-Burk plot method
Alpha-mannosidase [25] = biological target: T2, Alpha-mannosidase; experiment: Inhibition of jack bean alpha-mannosidase using o-orp-nitrophenyl-glycopyranoside as substrate by Lineweaver-Burk plot method

Row | Compound | fold change (FC) [3] | Ratio [5] | Km [6] [µM] | Ki (Acetylcholinesterase [7]) [µM] | GI50 [9] [µM] | kcat [10] [s⁻¹] | inhibition (Aspergillus oryzae) [%] | inhibition (Prunus dulcis) [%] | inhibition [11] [%] | inhibition (Helix pomatia) [%] | GI50 [12] [µM] | GI50 [13] [µM] | GI50 [14] [µM] | inhibition [15] [%] | Vmax [17] [µM/min] | inhibition (Escherichia coli) [%] | inhibition (Saccharomyces cerevisiae) [%] | GI50 [18] [µM] | Ki [19] [µM] | inhibition [20] [%] | other results
1 | OC[C@H]1NC[C@H](O)[C@@H](O)[C@@H]1O [DUVOGLUSTAT] | – | – | – | – | – | – | – | – | – | – | – | – | – | – | – | – | – | – | – | – | Ki [1]: 47 µM; Ki [2]: 25 µM
2 | O=c1c2ccccc2[se]n1-c1ccccc1 | 0.6 | – | – | – | – | – | – | – | – | – | – | – | – | – | – | – | – | – | – | – | –
3 | c1ccc(COC[C@H]2NC[C@H](OCc3ccccc3)[C@@H](OCc3ccccc3)[C@@H]2OCc2ccccc2)cc1 | 23.6 to 46.1 | – | – | – | – | – | – | – | – | – | – | – | – | – | – | – | – | – | – | – | fold change (FC) [4]: 18
4 | OC[C@@H]1[C@@H](O)[C@H](O)[C@@H](O)CN1CCCCCNC(=[Se])Nc1ccc(Br)cc1 | – | 292 | 330 | 5.8 | 7 | 0.016 | 42 | > 50 | > 50 | 18 | 24 | 7.6 | 27 | 7 | 96.4 | 12 | > 50 | 12 | 1.6 | > 50 | Ki (Alpha-mannosidase [8]): 390 µM; Ki (Alpha-mannosidase [16]): 290 µM; Ratio Ki [21]: < 36; GI50 [22]: 21 µM; Ki [23]: 30.7 µM; Ki (Acetylcholinesterase [24]): 11.2 µM
5 | c1ccc([Se][Se]c2ccccc2)cc1 | 2.5 | 82 | 1110 | – | – | 0.0045 | – | – | – | – | – | – | – | – | 27.3 | – | – | – | – | – | –
6 | Cc1ccc(NC(=[Se])NCCCCCN2C[C@H](O)[C@@H](O)[C@H](O)[C@H]2CO)cc1 | – | – | – | 105 | 45 | – | 20 | > 50 | 46 | 16 | 79 | 76 | 75 | 2 | – | 31 | > 50 | 68 | 3.7 | > 50 | GI50 [22]: 97 µM; Ki [23]: 35 µM; Ki (Acetylcholinesterase [24]): 16.9 µM
7 | COc1ccc(NC(=[Se])NCCCCCN2C[C@H](O)[C@@H](O)[C@H](O)[C@H]2CO)cc1 | – | 640 | 410 | 83.1 | 42 | 0.035 | 29 | > 50 | > 50 | 7 | 46 | 42 | 82 | 20 | 211 | 15 | > 50 | 58 | 5.5 | > 50 | GI50 [22]: > 100 µM; Ki (Alpha-mannosidase [25]): 510 µM; Ki [23]: 36 µM; Ki (Acetylcholinesterase [24]): 58.8 µM

Reference: ChEMBL document CHEMBL3870306, “Selenoureido-iminosugars: A new family of multitarget drugs” (Eur J Med Chem, 2016)
